Values quoted from earlier work in US8349888B2, “Phytoestrogenic isoflavone compositions, their preparation and use thereof for protection against and treatment of radiation injury” (priority 2000, dated 2013).

Tests used:
[1] = radioprotective doses

Structure (SMILES) | behavioral toxicity [1] | efficacy if given after radiation (mice)
C[C@]12CC[C@@H]3c4ccc(O)cc4CC[C@H]3[C@@H]1CC[C@@H]2O [17-beta-estradiol] | behaviorally toxic | 
O=c1cc(-c2ccc(O)c(O)c2)oc2c([C@@H]3O[C@H](CO)[C@@H](O)[C@H](O)[C@H]3O)c(O)cc(O)c12 [orientin] |  | not effective at all
O=c1cc(-c2ccc(O)cc2)oc2c([C@@H]3O[C@H](CO)[C@@H](O)[C@H](O)[C@H]3O)c(O)c([C@@H]3O[C@H](CO)[C@@H](O)[C@H](O)[C@H]3O)c(O)c12 [vicenin] |  | not effective at all
